Data published in patent US6649628B1, “N-[2-hydroxy-3-(1-piperidinyl)propoxy]pyridine-1-oxide-3-carboximidoyl chloride and its use in the treatment of insulin resistance” (Biorex Kutato es Fejleszto RT, priority 1999, dated 2003).

Key:
Assay type in all cases: in vivo, rat
STZ-diabetic Wistar rats [1] = assay: Experiment 4: histological alterations of early diabetic retinopathy after 1 month of treatment; settings: 1 month
Method: Photographs and slide positives were prepared of representative samples.
The given value for negative cases was 0.1. A Box and Whisker plot graph was also prepared.

[2] = test system: obese, insulin resistant, hyperinsulinaemic Zucker fa/fa rats; assay: Experiment 1: carbohydrate metabolism (fasting glucose/insulin, ip glucose tolerance test) after 2-month treatment
Method: In the experiments so-called Zucker fa/fa rats (Charles River Laboratories Inc.) were used. In […] animals, obesity, insulin resistance, high blood insulin level, impaired glucose tolerance and hypertriglyceridaemia result from hypothalamic leptin receptor mutation. Due to the above characteristics, this is an accepted model of early type 2 diabetes.
The animals were placed in individual metabolic cages for 24 hours at the beginning of the study, and after 1 or 2 months of treatment for 24 hours of urine collection.
The animals were given either the test substances or physiological saline solution by gavage for control once a day between weeks 14-22.
Biochemical parameters of the blood and the urine were measured by a Kodak Ectachem 700 automatic analyzer. The total protein level of the urine was determined spectrophotometrically with the use of Bradford staining (Hitachi U-3200) at 595 nm. The insulin concentration of the serum was determined by the RIA method, using rat anti-insulin antibodies.
Systolic, diastolic blood pressure and heart rate were measured weekly on the tails of the rats (so-called tail cuff method) by a Letica 200 automatic analyzer. After two months of treatment, the level of glucose tolerance was determined by the intraperitoneal glucose tolerance test (2 g/kg ip.).

STZ-diabetic Wistar rats [3] = assay: Experiment 2: peripheral neuropathy, nerve conduction velocity after 1-month treatment
Description: (§1) (Graphpad Instat, San Diego, Calif.).

STZ diabetic Wistar rats = assay: Preliminary test: N-oxide derivatives of bimoclomol on motor and sensor nerve conduction velocity deficit
Method: In a preliminary test the effectiveness of the three N-oxide derivatives of bimoclomol on motor and sensor neuropathy in STZ diabetic Wistar rats were studied. The effectiveness of the three bimoclomol N-oxide derivatives in improving the peripheral motor and sensor nerve conduction velocity deficit caused by streptozotocine-induced diabetes was determined with use of the method described in detail in Experiment 2.
as §1

STZ-diabetic Wistar rats [4] = assay: Experiment 3: diabetic autonomous neuropathy after 1 month of treatment; settings: daily 20 mg/kg single dose
Method: The experiments were performed under anesthesia achieved by administering 60 mg/kg ip. pentobarbital sodium (Nembutal, Sanofi, Phylaxia). After this, an intratracheal tube or polyethylene canula was inserted into the fermoral artery and vein. The arterial catheter was connected to a pressure transducer for the simultaneous measurement of systolic and diastolic blood pressure (online automatic measuring and forwarding system, with a Haemosys computer program). After 20 minutes of equillibration period, the following substances were administered intravenously: Noradrenalin, 5 μg/kg iv.—Isoproterenol 0.4 μg/kg iv.—N.vagus stimulation (2 V, duration: 500 μsec, delay: 1 msec). The effects of the substances were monitored for 10 minutes.

STZ-diabetic Wistar rats [5] = assay: Experiment 5: urinary protein loss caused by diabetic nephropathy after 1-month treatment
Method: For the 24-hour period of urine collection, the animals were placed in individual metabolic cages. During this period they were given water ad libitum but no food. The latter measure was necessary to prevent possible contamination by the protein content of the food. Urine was collected in calibrated glass containers, in which Thymol crystal (Reanal 3135-1-08-38) was placed to prevent bacterial contamination.
Before measurement, the urine samples were centrifuged (2500 rpm) and filtered through a paper filter (Whatmann 1). If necessary, they were stored at −20° C. until measurement.
The total protein content of the urine was determined by the Bradford staining method (Sigma B-6916, St. Louis, Mo.), and color intensity was detected by spectrophotometry (Hitachi-U-3200).

[6] = 20 mg/kg p.os daily, 2-month treatment
[7] = intraperitoneal glucose tolerance test
[8] = ip glucose tolerance test 2 g/kg, AUC 0-60 minutes, 20 mg/kg p.os daily, 2-month treatment
[9] = 20 mg/kg p.os once a day, 1 month
[10] = 1 month, isoproterenol 0.4 μg/kg iv.

O=C(O)/C=C\C(=O)O.OC(CON=C(Cl)c1cccnc1)CN1CCCCC1 (racemic) [bimoclomol, maleate of O-(3-piperidino-2-hydroxy-1-propyl)-3-pyridyne hydroxymic acid-chloride, reference compound]
Score values Improvement % (STZ-diabetic Wistar rats [1]; 20 mg/kg daily): 61.3% | Score values Mean ± SE (retinopathy histology) (STZ-diabetic Wistar rats [1]; 20 mg/kg daily): 5.185 ± 1.019 | effect on diabetic retinopathy induced pathological histological alterations (STZ-diabetic Wistar rats [1]; Compound A 5 mg/kg, bimoclomol 20 mg/kg daily): significantly improved | effect on fasting blood glucose ([2]; 20 mg/kg p.os daily): significantly reduced | effect on fasting insulin concentration ([2]; 20 mg/kg p.os daily): did not effect | Fasting Blood Glucose (mean ± SE) [2, 6]: 8.179 ± 0.316 mmol/L | Fasting Insulin (mean ± SE) [2, 6]: 29.362 ± 9.211 ng/mL | effect on AUC of insulin [2, 7]: had no effect | effect on area under the blood glucose curve (AUC) [2, 7]: neither bimoclomol, nor Compound A effected | Blood Glucose (AUC) (mean ± SE) [2, 8]: 1286.86 ± 131.59 | Insulin (AUC) (mean ± SE) [2, 8]: 2337.71 ± 590.49 | effect on peripheral insulin resistance ([2]; summary of Experiment 1): does not | MNCV (STZ-diabetic Wistar rats [3]; [9]): 57.4 ± 0.2 m/s | MNCV improvement (STZ-diabetic Wistar rats [3]; [9]): 79.7% | SNCV (STZ-diabetic Wistar rats [3]; [9]): 58.5 ± 0.6 m/s | SNCV improvement (STZ-diabetic Wistar rats [3]; [9]): 77.9% | effect on motor (MNCV) and sensor (SNCV) nerve conduction velocities (STZ-diabetic Wistar rats [3]; bimoclomol 20 mg/kg, Compound A 5 mg/kg once a day): significantly improved | Improvement of nerve conduction velocity (%) motor (MNCV) (STZ diabetic Wistar rats; 20 mg/kg): 72,4% | Improvement of nerve conduction velocity (%) sensor (SNCV) (STZ diabetic Wistar rats; 20 mg/kg): 66,9% | effect on pathological deviations resulting from autonomous neuropathy (STZ-diabetic Wistar rats [4]): significantly reduced | Increased negative chronotropic effect on vagus stimulation (STZ-diabetic Wistar rats [4]; 1 month): ↑ (corrects) | Reduced hypotension on vagus stimulation (STZ-diabetic Wistar rats [4]; 1 month): ↑ (corrects) | Systemic arterial hypotension (deviation due to diabetes) (STZ-diabetic Wistar rats [4]; 1 month): ↑ (corrects) | Weight loss (deviation due to diabetes) (STZ-diabetic Wistar rats [4]; 1 month): ↑ (corrects) | Reduced IS induced positive chronotropic effect (STZ-diabetic Wistar rats [4]; [10]): ↑ (corrects) | Reduced IS induced systemic arterial hypotension (STZ-diabetic Wistar rats [4]; [10]): ↑ (corrects) | Reduced NA induced systemic arterial pressure response (STZ-diabetic Wistar rats [4]; 1 month, noradrenalin 5 μg/kg iv.): ↑ (corrects) | 24-hour Urinary Protein Loss Mean ± SE (STZ-diabetic Wistar rats [5]; 20 mg/kg daily, 1 month, series 1): 3.66 ± 1.39 mg/24 h | effect on STZ-diabetes-induced urinary protein loss (STZ-diabetic Wistar rats [5]; Bimoclomol 20 mg/kg, Compound-A 10 mg/kg, (+) enantiomer 5 mg/kg daily): significantly reduced

[O-][n+]1cccc(C(Cl)=NOCC(O)CN2CCCCC2)c1 (centres unmarked) [N-[2-hydroxy-3-(1-piperidinyl)-1-propoxy]-pyridine-1-oxide-3-carboximidoyl chloride]
Improvement of nerve conduction velocity (%) motor (MNCV) (STZ diabetic Wistar rats; 5 mg/kg): 66,5% | Improvement of nerve conduction velocity (%) sensor (SNCV) (STZ diabetic Wistar rats; 5 mg/kg): 63,4% | effect on the motor and sensor neuropathy compared with bimoclomol (STZ diabetic Wistar rats; N-oxide derivatives 5 mg/kg vs bimoclomol 20 mg/kg): equivalent with bimoclomol
